# Measurements: publication PMC10398685 (ACS Omega, 2023)
# Entries after “also recorded” stand apart in the source; their conditions may differ.
# How the values were obtained:
# Plasma stability, human = type: in vitro ADME; conditions: 5uM, triplicates, 37 °C
# Experimental: The microsomal half-lives (t1/2) were calculated using the equation t1/2=0.693/k, where k is the slope found in the linear fit of the natural logarithm of the fraction remaining of the parent compound vs. incubation time. […]
# To determine plasma stability of the compounds, 5 μM of these were incubated with human pooled plasma from 50 donors (Biowest) for 120 min and 240 min at 37 °C. The reactions were terminated by adding four volumes of ice -cold methanol, the samples were then mixed vigorously and left at -20 °C for 1 h. After that, the samples were centrifuged, and the supernatant was analyzed by means of ECHO -MS® System (Sciex). Zero time points were prepared by adding ice-cold methanol to the compound prior the addition of the plasma. […]
# [1] = Microsomal stability, human; type: in vitro ADME; conditions: triplicates; for Microsomal stability Rem. at 45 min / Microsomal stability T1/2: 0.5 mg/ml human microsomes, 5uM; for microsomal CLint at 5 µM / half-life at 5 µM: pooled liver microsomes, pH 7.4, 0.5 mg/ml human microsomes; for half-life at 5 µM: read-out: Microsomal stability T1/2
# Source text: 50% methanol. The samples were then transferred to ECHO® -compatible 384-well plates and the amount of analytes were quantified by the ECHO -MS® System (Sciex) where acoustic droplet ejection module is coupled with Sciex 6500® triple quadrupole mass spectrometer operating with an electrospray ionization source. Spectrometer was run in the multiple reaction monitoring (MRM) mode. When necessary, the processed samples were further diluted in 50% methanol to fit in the calibration range. Calibration curves of the compounds in 50% methanol were measured alongside the samples within the same run. […]
# 3.4. Microsomal stability […]
# The reactions were […]
# terminated by the addition of four volumes of ice-cold methanol, mixed vigorously and left at -20 °C for 1 h. After that, the samples were centrifuged and the supernatants were analyzed by means of ECHO-MS® System (Sciex, Framingham, MA, USA). Zero time points were prepared by adding ice-cold methanol to the mixture of compound with cofactors prior to the addition of microsomes. The microsomal half-lives (t1/2) were calculated using the equation t1/2=0.693/k, where k is the slope found in the linear fit of the natural logarithm of the fraction remaining of the parent compound vs. incubation time. Intrinsic clearance (CLint) was calculated using the following formula: CLint = V * ln2 /t1/2, where V = incubation volume per milligram of microsomal protein (µL/mg) and t1/2 = microsomal half-life. […]
# (§1) 3.6. Caco-2 permeability assay
# (§2) Transepithelial bi-directional transport of tested compounds (5 µM, pH 7.4/7.4) across the Caco-2 monolayers was studied using the BD BioCoat HTS Caco -2 assay system (BD Biosciences, Bedford, MA) as described in detail elsewhere.17 Aliquots were collected from the donor and acceptor compartment at the end of transport period (3 h), integrity of monolayers were verified using Lucifer Yellow dye and the compounds were quantified using LC-MS/MS (Sciex 6500® triple quadrupole). The apparent permeability coefficient (Papp) was calculated from the following equation: Papp = (dQ / dt) / C0 * A, where dQ/dt is the rate of absorption of the drug across the cells, C0 is the donor compartment concentration at time zero, and A is the area of the monolayer. Efflux ratio was expressed as (Papp B-A) / (Papp A-B). Recovery (%) was determined as (total compound mass in donor and receiver compartments at the end of the incubation / initial compound mass in the donor compartment) x 100.
# [2] = Caco-2 permeability assay; type: in vitro ADME; conditions: human; for recovery at 3 h, 5 µM / Papp A→B at 3 h, 5 µM / Papp B→A at 3 h, 5 µM: Caco-2, 5 µM; for Papp A→B at 3 h, 5 µM / Papp B→A at 3 h, 5 µM: pH 7.4/7.4, 3 h; for efflux ratio at 3 h, 5 µM: Caco-2, (Papp B-A)/(Papp A-B)
# Experimental: as §1, §2
# SARS-CoV-2 = experiment: microbe, parasite or virus in culture; type: cell-based; conditions: Severe acute respiratory syndrome coronavirus 2, 72 h; Calu-3 cells, MOI~0.03, 3 days incubation, CPE by XTT; read-out: EC50 (anti-SARS-CoV-2 activity)
# in vitro = conditions: African green monkey
# [3] = tested on: 6 human methyltransferases (PRMT6, SUV39H1, SUV39H2, SETDB1, SETD7, and MLL1); type: biochemical; conditions: tested at 1 μM by SPA assay, duplicate
# [4] = target: SARS-CoV-2 nsp14 7-N MTase (Severe acute respiratory syndrome coronavirus 2, UniProt P0DTD1); experiment: biochemical; conditions: Echo MS assay, 20 nM nsp14, 4 μM SAM, 4 μM GpppA, duplicates
# Plasma stability, mouse = type: in vitro ADME; conditions: 5uM, triplicates
Compound,"Plasma stability Rem. at 120 min (Plasma stability, human) [%]","Plasma stability T1/2 (Plasma stability, human)",Microsomal stability Rem. at 45 min [1] [%],Microsomal stability T1/2 [1],"recovery at 3 h, 5 µM [2] [%]","Papp A→B at 3 h, 5 µM [2] [×10⁻⁶ cm/s]","efflux ratio at 3 h, 5 µM [2]",EC50 (SARS-CoV-2) [µM],CC50 at 3 days (in vitro) [µM],Selectivity against 6 human methyltransferases [3],IC50 [4] [µM],"Plasma stability Rem. at 120 min (Plasma stability, mouse) [%]","Plasma stability T1/2 (Plasma stability, mouse)",microsomal CLint at 5 µM [1] [µL/min/mg],half-life at 5 µM [1] [min],"Papp B→A at 3 h, 5 µM [2] [×10⁻⁶ cm/s]"
COc1ccc(S(=O)(=O)N(C)C[C@H]2O[C@@H](n3cc(C#Cc4cnc5ccccc5c4)c4c(N)ncnc43)[C@H](O)[C@@H]2O)cc1C#N [Compound 12q],97.2 ± 4.1,Stable,105.0 ± 3.9,Stable; also recorded: excellent stability,4,0.2,0.4,> 100,> 100,selective,0.019 ± 0.0025,113.2 ± 3.7,Stable,,,
CCN(C[C@H]1O[C@@H](n2cc(C#Cc3nc4ccccc4[nH]3)c3c(N)ncnc32)[C@H](O)[C@@H]1O)S(=O)(=O)c1ccc(OC)c(C#N)c1 [Compound 12a],84.3 ± 2.6,Stable,18.5 ± 4.0,,,,,> 100,> 100,,0.037 ± 0.0065,119.2 ± 6.0,Stable,77.3 ± 10.3,17.3 ± 2.2,
CCN(C[C@H]1O[C@@H](n2cc(C#Cc3ccc(C(N)=O)cc3)c3c(N)ncnc32)[C@H](O)[C@@H]1O)S(=O)(=O)c1ccc(OC)c(C#N)c1 [Compound 12o],95.6 ± 5.1,Stable,30.5 ± 5.3,,,,,> 100,> 100,,0.049 ± 0.0062,115.4 ± 3.7,Stable,53.8 ± 5.8,26.2 ± 3.4,
CCN(C[C@H]1O[C@@H](n2cc(C#Cc3ccc(N)nc3)c3c(N)ncnc32)[C@H](O)[C@@H]1O)S(=O)(=O)c1ccc(OC)c(C#N)c1 [Compound 12h],102.3 ± 4.8,Stable,47.2 ± 3.5,,,,,> 100,> 100,,0.046 ± 0.0058,108.2 ± 4.2,Stable,34.9 ± 4,38 ± 3.7,
COc1ccc(S(=O)(=O)N(C)C[C@H]2O[C@@H](n3cc(C#Cc4ccc(C(N)=O)cc4)c4c(N)ncnc43)[C@H](O)[C@@H]2O)cc1C#N [Compound 12r],89.7 ± 0.6,Stable,83.3 ± 2.6,Stable; also recorded: excellent stability,1,0.1 ± 0.1,0.1,> 100,> 100,selective,0.023 ± 0.0037,113.5 ± 6.0,Stable,,,0.1
CCN(C[C@H]1O[C@@H](n2cc(C#Cc3cccnc3)c3c(N)ncnc32)[C@H](O)[C@@H]1O)S(=O)(=O)c1ccc(OC)c(C#N)c1 [Compound 12l],89.8 ± 2.0,Stable,78.6 ± 1.1,,17,0.1,0.9,> 100,> 100,,0.038 ± 0.0059,109.9 ± 1.0,Stable,11.2 ± 1.5,113 ± 3.5,0.1
CCN(C[C@H]1O[C@@H](n2cc(C#Cc3cnc4ccccc4c3)c3c(N)ncnc32)[C@H](O)[C@@H]1O)S(=O)(=O)c1ccc(OC)c(C#N)c1 [Compound 12e],76.3 ± 13.7,Stable,60.2 ± 3.5,,,,,> 100,> 100,,0.028 ± 0.005,120.8 ± 10.5,Stable,19.6 ± 6.1,91.3 ± 12.2,
COc1ccc(S(=O)(=O)N(C)C[C@H]2O[C@@H](n3cc(C#Cc4cccnc4)c4c(N)ncnc43)[C@H](O)[C@@H]2O)cc1C#N [Compound 12s],86.9 ± 0.9,Stable,55.9 ± 4.7,,3,0.4 ± 0.3,1.3,> 100,> 100,selective,0.021 ± 0.003,102.7 ± 3.4,Stable,27.1 ± 2,53.7 ± 2.7,0.3 ± 0.1
